In PMC5218480 (PLoS ONE, 2017):

Test system: MV-4-11 cells
Test: Gene expression microarray analysis (Affymetrix PrimeView) and GSEA
Format: cell-based, human
Set-up: RFU PODN (11730768_x_at) / Fold change /veh PODN (11730768_x_at) / RFU LINC00158 (11744669_a_at) / Fold change /veh LINC00158 (11744669_a_at) / RFU DUSP10 (11751237_a_at) / Fold change /veh DUSP10 (11751237_a_at) / RFU ID3 (11757404_x_at) / Fold change /veh ID3 (11757404_x_at) / RFU PLEKHG5 (11737974_s_at) / Fold change /veh PLEKHG5 (11737974_s_at) / RFU LRRC4B (11730491_at) / Fold change /veh LRRC4B (11730491_at) / RFU GIMAP4 (11747438_a_at) / Fold change /veh GIMAP4 (11747438_a_at) / RFU KRT8 (11758183_x_at) / Fold change /veh KRT8 (11758183_x_at) / RFU CNN1 (11734310_a_at) / Fold change /veh CNN1 (11734310_a_at) / RFU VPS37D (11726825_at) / Fold change /veh VPS37D (11726825_at) / RFU C10orf10 (11716522_x_at) / Fold change /veh C10orf10 (11716522_x_at) / RFU KIR2DL2 /// KIR2DL4 /// KIR2DL5A /// KIR2DL5B /// KIR2DS1 /// KIR2DS2 /// KIR2DS3 /// KIR2DS4 /// KIR3DL3 /// KIR3DL3 /// KIR3DS1 (11738374_at) / Fold change /veh KIR2DL2 /// KIR2DL4 /// KIR2DL5A /// KIR2DL5B /// KIR2DS1 /// KIR2DS2 /// KIR2DS3 /// KIR2DS4 /// KIR3DL3 /// KIR3DL3 /// KIR3DS1 (11738374_at) / RFU C1QL1 (11718748_at) / Fold change /veh C1QL1 (11718748_at) / RFU TMPRSS4 (11747572_a_at) / Fold change /veh TMPRSS4 (11747572_a_at) / RFU HAMP (11756126_x_at) / Fold change /veh HAMP (11756126_x_at) / RFU RNFT2 (11725882_a_at) / Fold change /veh RNFT2 (11725882_a_at) / RFU NR4A2 (11747474_a_at) / Fold change /veh NR4A2 (11747474_a_at) / RFU ABCC12 (11746883_a_at) / Fold change /veh ABCC12 (11746883_a_at) / RFU TMEM136 (11760407_x_at) / Fold change /veh TMEM136 (11760407_x_at) / RFU CLDN22 /// WWC2 (11732394_at) / Fold change /veh CLDN22 /// WWC2 (11732394_at) / RFU HLA-DPB1 (11760878_x_at) / Fold change /veh HLA-DPB1 (11760878_x_at) / RFU SPINT1 (11716480_a_at) / Fold change /veh SPINT1 (11716480_a_at) / RFU GAP43 (11754022_s_at) / Fold change /veh GAP43 (11754022_s_at) / RFU A4GNT (11735810_at) / Fold change /veh A4GNT (11735810_at) / RFU PRB3 (11715151_x_at) / Fold change /veh PRB3 (11715151_x_at) / RFU TUBB4B (11761932_at) / Fold change /veh TUBB4B (11761932_at) / RFU CAPN14 (11732068_a_at) / Fold change /veh CAPN14 (11732068_a_at) / RFU TMCC2 (11721928_a_at) / Fold change /veh TMCC2 (11721928_a_at) / RFU IRGQ (11745062_a_at) / Fold change /veh IRGQ (11745062_a_at) / RFU FAM174B (11720279_a_at) / Fold change /veh FAM174B (11720279_a_at) / RFU TMPRSS4 (11748680_a_at) / Fold change /veh TMPRSS4 (11748680_a_at) / RFU FAM212B (11763350_a_at) / Fold change /veh FAM212B (11763350_a_at) / RFU PLEKHG5 (11743358_a_at) / Fold change /veh PLEKHG5 (11743358_a_at) / RFU ZSCAN30 (11745921_a_at) / Fold change /veh ZSCAN30 (11745921_a_at) / RFU CMKLR1 (11741424_a_at) / Fold change /veh CMKLR1 (11741424_a_at) / RFU LOC101060620 /// MAPK8IP1 (11723275_at) / Fold change /veh LOC101060620 /// MAPK8IP1 (11723275_at) / RFU SPTSSB (11747773_x_at) / Fold change /veh SPTSSB (11747773_x_at) / RFU PRSS12 (11739890_at) / Fold change /veh PRSS12 (11739890_at) / RFU BIN1 (11741810_x_at) / Fold change /veh BIN1 (11741810_x_at) / RFU WNT11 (11732464_a_at) / Fold change /veh WNT11 (11732464_a_at) / RFU C10orf10 (11716521_a_at) / Fold change /veh C10orf10 (11716521_a_at) / RFU C5orf56 (11738089_at) / Fold change /veh C5orf56 (11738089_at) / RFU CYB561 (11721691_x_at) / Fold change /veh CYB561 (11721691_x_at) / RFU ANKRD19P (11752326_a_at) / Fold change /veh ANKRD19P (11752326_a_at) / RFU OR2T12 /// OR2T33 /// OR2T8 (11738714_s_at) / Fold change /veh OR2T12 /// OR2T33 /// OR2T8 (11738714_s_at) / RFU VCAN (11748164_a_at) / Fold change /veh VCAN (11748164_a_at) / RFU JSRP1 (11732532_at) / Fold change /veh JSRP1 (11732532_at) / RFU KRTAP10-11 (11738290_x_at) / Fold change /veh KRTAP10-11 (11738290_x_at) / RFU MYO3A (11730013_a_at) / Fold change /veh MYO3A (11730013_a_at) / RFU EBF3 (11725865_a_at) / Fold change /veh EBF3 (11725865_a_at) / RFU CAMK2N1 (11719241_x_at) / Fold change /veh CAMK2N1 (11719241_x_at) / RFU C5orf56 (11738088_a_at) / Fold change /veh C5orf56 (11738088_a_at) / RFU OLFML3 (11715873_a_at) / Fold change /veh OLFML3 (11715873_a_at) / RFU LOC100653217 /// NTM (11731650_a_at) / Fold change /veh LOC100653217 /// NTM (11731650_a_at) / RFU MAPK11 (11762145_a_at) / Fold change /veh MAPK11 (11762145_a_at) / RFU FIZ1 (11724087_x_at) / Fold change /veh FIZ1 (11724087_x_at) / RFU OASL (11726364_x_at) / Fold change /veh OASL (11726364_x_at) / RFU SOX15 (11748057_x_at) / Fold change /veh SOX15 (11748057_x_at) / RFU CD79A (11719716_a_at) / Fold change /veh CD79A (11719716_a_at) / RFU HIST1H1D (11736915_at) / Fold change /veh HIST1H1D (11736915_at) / RFU CASKIN2 (11723855_a_at) / Fold change /veh CASKIN2 (11723855_a_at) / RFU LOC730098 (11760151_x_at) / Fold change /veh LOC730098 (11760151_x_at) / RFU OR4N2 (11742367_at) / Fold change /veh OR4N2 (11742367_at) / RFU PRRT2 (11749266_a_at) / Fold change /veh PRRT2 (11749266_a_at) / RFU SNX32 (11753110_a_at) / Fold change /veh SNX32 (11753110_a_at) / RFU CDHR5 (11726645_a_at) / Fold change /veh CDHR5 (11726645_a_at) / RFU RCAN1 (11760418_a_at) / Fold change /veh RCAN1 (11760418_a_at) / RFU FAM167A (11723789_a_at) / Fold change /veh FAM167A (11723789_a_at) / RFU FAM26E (11764081_at) / Fold change /veh FAM26E (11764081_at) / RFU ISYNA1 (11749810_s_at) / Fold change /veh ISYNA1 (11749810_s_at) / RFU ACY1 (11761880_at) / Fold change /veh ACY1 (11761880_at) / RFU 11764098_at / Fold change /veh 11764098_at / RFU SAMD14 (11745864_x_at) / Fold change /veh SAMD14 (11745864_x_at) / RFU NPB (11741838_a_at) / Fold change /veh NPB (11741838_a_at) / RFU TMPRSS6 (11731388_a_at) / Fold change /veh TMPRSS6 (11731388_a_at) / RFU KRTAP10-2 (11738614_at) / Fold change /veh KRTAP10-2 (11738614_at) / RFU ARHGAP8 /// PRR5-ARHGAP8 (11727945_x_at) / Fold change /veh ARHGAP8 /// PRR5-ARHGAP8 (11727945_x_at) / RFU KRTAP5-7 /// NADSYN1 (11734609_at) / Fold change /veh KRTAP5-7 /// NADSYN1 (11734609_at) / RFU RASL12 (11751679_a_at) / Fold change /veh RASL12 (11751679_a_at) / RFU CDKN2B (11736163_a_at) / Fold change /veh CDKN2B (11736163_a_at) / RFU PRF1 (11729649_at) / Fold change /veh PRF1 (11729649_at) / RFU, ZNF638 /// ZNF638-IT1 / Fold change vs veh, ZNF638 /// ZNF638-IT1 / RFU, PANK3 / Fold change vs veh, PANK3 / RFU, SH3YL1 / Fold change vs veh, SH3YL1 / RFU, ZEB2 / Fold change vs veh, ZEB2 / RFU, NRIP1 / Fold change vs veh, NRIP1 / RFU, PTTG1IP / Fold change vs veh, PTTG1IP / RFU, CAPN2 / Fold change vs veh, CAPN2 / RFU, MED14 / Fold change vs veh, MED14 / RFU, SNORA58 / Fold change vs veh, SNORA58 / RFU, C1orf63 / Fold change vs veh, C1orf63 / RFU, LRRFIP1 / Fold change vs veh, LRRFIP1 / RFU, NDUFAF7 / Fold change vs veh, NDUFAF7 / RFU, SLC12A2 / Fold change vs veh, SLC12A2 / RFU, IBTK / Fold change vs veh, IBTK / RFU, ESF1 / Fold change vs veh, ESF1 / Fold change vs veh, TMEM50B / RFU, TAOK1 / Fold change vs veh, TAOK1 / RFU, ACBD3 / Fold change vs veh, ACBD3 / RFU, TMA16 / Fold change vs veh, TMA16 / RFU, RWDD3 / Fold change vs veh, RWDD3 / RFU, BCAT1 / Fold change vs veh, BCAT1 / RFU, EDEM3 / Fold change vs veh, EDEM3 / RFU, TMEM33 / Fold change vs veh, TMEM33 / RFU, WDR75 / Fold change vs veh, WDR75 / RFU, AHCTF1 / Fold change vs veh, AHCTF1 / RFU, TFRC / Fold change vs veh, TFRC / RFU, ZDHHC17 / Fold change vs veh, ZDHHC17 / RFU, NOM1 / Fold change vs veh, NOM1 / RFU, ARL8B / Fold change vs veh, ARL8B / RFU, ZBTB11 / Fold change vs veh, ZBTB11 / RFU, TAMM41 / Fold change vs veh, TAMM41 / RFU, KIAA1704 /// LOC100996395 / Fold change vs veh, KIAA1704 /// LOC100996395 / RFU, ING1 / Fold change vs veh, ING1 / RFU, TRMT61B / Fold change vs veh, TRMT61B / RFU, FUBP3 / Fold change vs veh, FUBP3 / RFU, TP53 / Fold change vs veh, TP53 / RFU, TNKS2 / Fold change vs veh, TNKS2 / RFU, ZFP14 / Fold change vs veh, ZFP14 / RFU, ACTR2 / Fold change vs veh, ACTR2 / RFU, PPP3R1 / Fold change vs veh, PPP3R1 / RFU, PIK3R1 / Fold change vs veh, PIK3R1 / RFU, HNRNPA1 / Fold change vs veh, HNRNPA1 / RFU, RNF170 / Fold change vs veh, RNF170 / RFU, ZNF28 / Fold change vs veh, ZNF28 / RFU, RNGTT / Fold change vs veh, RNGTT / RFU, OGT / Fold change vs veh, OGT / RFU, BRD1 / Fold change vs veh, BRD1 / RFU, MARS / Fold change vs veh, MARS / RFU, ZNF655 / Fold change vs veh, ZNF655 / RFU, FAHD1 / Fold change vs veh, FAHD1 / RFU, BDP1 / Fold change vs veh, BDP1 / RFU, LRRCC1 / Fold change vs veh, LRRCC1 / RFU, ARID1A / Fold change vs veh, ARID1A / RFU, ZNF146 / Fold change vs veh, ZNF146 / RFU, ZNF330 / Fold change vs veh, ZNF330 / RFU, GPN3 / Fold change vs veh, GPN3 / RFU, C9orf123 / Fold change vs veh, C9orf123 / RFU, N4BP2L2 / Fold change vs veh, N4BP2L2 / RFU, ARFIP1 / Fold change vs veh, ARFIP1 / RFU, FAM179B / Fold change vs veh, FAM179B / RFU, BCL10 / Fold change vs veh, BCL10 / RFU, UHRF1BP1L / Fold change vs veh, UHRF1BP1L / RFU, BET1 / Fold change vs veh, BET1 / RFU, CNOT2 / Fold change vs veh, CNOT2 / RFU, ZNF268 / Fold change vs veh, ZNF268 / Fold change vs veh, ZNF507 / RFU, DGCR2 / Fold change vs veh, DGCR2 / RFU, WDSUB1 / Fold change vs veh, WDSUB1 / Fold change vs veh, HSP90B1 /// MIR3652 / RFU, ADSS / Fold change vs veh, ADSS / RFU, GK / Fold change vs veh, GK / RFU, ZNF148 / Fold change vs veh, ZNF148 / RFU, TAF9 / Fold change vs veh, TAF9 / RFU, SLC1A5 / Fold change vs veh, SLC1A5 / RFU, SLMO2 / Fold change vs veh, SLMO2 / RFU, ABCC4 / Fold change vs veh, ABCC4 / RFU, LOC101060439 /// RAP1B / Fold change vs veh, LOC101060439 /// RAP1B / RFU, RFX7 / Fold change vs veh, RFX7 / RFU, GTPBP10 / Fold change vs veh, GTPBP10 / RFU, CNEP1R1 / Fold change vs veh, CNEP1R1 / RFU, BIVM-ERCC5 /// ERCC5 / Fold change vs veh, BIVM-ERCC5 /// ERCC5 / RFU, ILF3 / Fold change vs veh, ILF3 / RFU 11762660_at / Fold change /veh 11762660_at / RFU VCAN (11757783_s_at) / Fold change /veh VCAN (11757783_s_at) / RFU DDX43 (11728927_at) / Fold change /veh DDX43 (11728927_at) / RFU KRT8 (11758188_x_at) / Fold change /veh KRT8 (11758188_x_at) / RFU NKD1 (11759106_at) / Fold change /veh NKD1 (11759106_at) / RFU SRD5A1 (11742802_a_at) / Fold change /veh SRD5A1 (11742802_a_at) / RFU TPSAB1 /// TPSB2 (11721975_s_at) / Fold change /veh TPSAB1 /// TPSB2 (11721975_s_at) / RFU GSTM3 (11746129_a_at) / Fold change /veh GSTM3 (11746129_a_at) / RFU IL23R (11737362_x_at) / Fold change /veh IL23R (11737362_x_at) / RFU TMEM51 (11727254_a_at) / Fold change /veh TMEM51 (11727254_a_at) / RFU PIWIL2 (11732686_x_at) / Fold change /veh PIWIL2 (11732686_x_at) / RFU ORM1 (11744905_x_at) / Fold change /veh ORM1 (11744905_x_at) / RFU CCDC152 (11743942_at) / Fold change /veh CCDC152 (11743942_at) / RFU ECM1 (11717891_a_at) / Fold change /veh ECM1 (11717891_a_at) / RFU IL23R (11748794_a_at) / Fold change /veh IL23R (11748794_a_at) / RFU TNFAIP8L3 (11732012_x_at) / Fold change /veh TNFAIP8L3 (11732012_x_at) / RFU MBOAT4 (11741988_at) / Fold change /veh MBOAT4 (11741988_at) / RFU 11764193_at / Fold change /veh 11764193_at / RFU TMEM53 (11763286_at) / Fold change /veh TMEM53 (11763286_at) / RFU MAGEB2 (11727129_at) / Fold change /veh MAGEB2 (11727129_at) / RFU TMEM200A (11744735_a_at) / Fold change /veh TMEM200A (11744735_a_at) / RFU CCDC152 (11751479_a_at) / Fold change /veh CCDC152 (11751479_a_at) / RFU FAM211A (11726209_a_at) / Fold change /veh FAM211A (11726209_a_at) / RFU RGS16 (11746705_a_at) / Fold change /veh RGS16 (11746705_a_at) / RFU VCAN (11755009_s_at) / Fold change /veh VCAN (11755009_s_at) / RFU RHOB (11743442_s_at) / Fold change /veh RHOB (11743442_s_at) / RFU RGS16 (11720943_a_at) / Fold change /veh RGS16 (11720943_a_at) / RFU RGS16 (11720944_at) / Fold change /veh RGS16 (11720944_at) / RFU, VPS4B / Fold change vs veh, VPS4B / RFU, CREB1 / Fold change vs veh, CREB1 / RFU, DNAJC13 / Fold change vs veh, DNAJC13 / RFU, GNAQ / Fold change vs veh, GNAQ / RFU, CDK5R1 / Fold change vs veh, CDK5R1 / RFU, ZRANB3 / Fold change vs veh, ZRANB3 / RFU, CUL4A / Fold change vs veh, CUL4A / RFU, CCNY / Fold change vs veh, CCNY / RFU, UFL1 / Fold change vs veh, UFL1 / RFU, COG3 / Fold change vs veh, COG3 / RFU, DIAPH2 / Fold change vs veh, DIAPH2 / RFU, SKA2 / Fold change vs veh, SKA2 / RFU, AFF3 / Fold change vs veh, AFF3 / RFU, LMF1 / Fold change vs veh, LMF1 / RFU, IPO11 / Fold change vs veh, IPO11 / RFU, DFFB / Fold change vs veh, DFFB / RFU, FOXP1 / Fold change vs veh, FOXP1 / RFU, CARD8 / Fold change vs veh, CARD8 / RFU, STRN3 / Fold change vs veh, STRN3 / RFU, ADK / Fold change vs veh, ADK / RFU, RASSF2 / Fold change vs veh, RASSF2 / RFU, WIPF1 / Fold change vs veh, WIPF1 / RFU, LARP1B / Fold change vs veh, LARP1B / RFU, RASA1 / Fold change vs veh, RASA1 / RFU, RB1 / Fold change vs veh, RB1 / RFU, PPFIA1 / Fold change vs veh, PPFIA1 / RFU, MAT2A / Fold change vs veh, MAT2A / RFU, CCT5 / Fold change vs veh, CCT5 / RFU, WDR92 / Fold change vs veh, WDR92 / RFU, CUX1 / Fold change vs veh, CUX1 / RFU, TTC7A / Fold change vs veh, TTC7A / RFU, TMEM135 / Fold change vs veh, TMEM135 / RFU, DEPTOR / Fold change vs veh, DEPTOR / RFU, CPM / Fold change vs veh, CPM / RFU, DNAJB6 / Fold change vs veh, DNAJB6 / RFU, CACNA2D3 / Fold change vs veh, CACNA2D3 / RFU, DTX4 / Fold change vs veh, DTX4 / RFU, TFCP2 / Fold change vs veh, TFCP2 / RFU, GMCL1 /// GMCL1P1 / Fold change vs veh, GMCL1 /// GMCL1P1 / RFU, AEBP2 / Fold change vs veh, AEBP2 / RFU, SNHG1 /// SNORD22 /// SNORD25 /// SNORD26 /// SNORD27 /// SNORD28 /// SNORD29 /// SNORD31 / Fold change vs veh, SNHG1 /// SNORD22 /// SNORD25 /// SNORD26 /// SNORD27 /// SNORD28 /// SNORD29 /// SNORD31 / Fold change (Aza/veh), C12orf56 (ProbeSet 11735607_a_at) / Fold change (ACY-1035/veh), C12orf56 (ProbeSet 11735607_a_at) / Fold change (Aza/veh), FGFR1OP (ProbeSet 11751329_s_at) / Fold change (ACY-1035/veh), FGFR1OP (ProbeSet 11751329_s_at) / Fold change (Aza/veh), VPS36 (ProbeSet 11739960_a_at) / Fold change (ACY-1035/veh), VPS36 (ProbeSet 11739960_a_at) / RFU SYPL1 (11715823_x_at) / Fold change /veh SYPL1 (11715823_x_at) / RFU IGFBP7 (11715501_s_at) / Fold change /veh IGFBP7 (11715501_s_at) / RFU REEP3 (11722064_at) / Fold change /veh REEP3 (11722064_at) / RFU IGLL1 (11728026_x_at) / Fold change /veh IGLL1 (11728026_x_at): dose or concentration left out as unconfirmed
Details: ProbeSet 11752001_a_at; LIST D

For `Nc1ccc(-c2cccs2)cc1NC(=O)c1ccc2c(c1)cc(C1CC1)n2CCN1CCOCC1` [ACY-1035], the “RFU, CUL4A” value was 438.04 RFU.
